Laboratory results taken from patent US7662838B2, “Use of a deoxynojirimycin derivative or a pharmaceutically salt thereof” (Genzyme Corporation, priority 2003, dated 2010).
Like-named read-outs stand apart in the source and are kept apart here.

Key:
sucrase = target: T1, sucrase (Rattus norvegicus, UniProt P23739); test: In vitro sucrase activity, intestinal membrane preparation; format: biochemical
T1 construct: Membrane homogenates were prepared by extensive washing and homogenization; from tissue; host or cells: rat intestinal membrane homogenate
T1 sequence (P23739 1014-1841 limits assumed): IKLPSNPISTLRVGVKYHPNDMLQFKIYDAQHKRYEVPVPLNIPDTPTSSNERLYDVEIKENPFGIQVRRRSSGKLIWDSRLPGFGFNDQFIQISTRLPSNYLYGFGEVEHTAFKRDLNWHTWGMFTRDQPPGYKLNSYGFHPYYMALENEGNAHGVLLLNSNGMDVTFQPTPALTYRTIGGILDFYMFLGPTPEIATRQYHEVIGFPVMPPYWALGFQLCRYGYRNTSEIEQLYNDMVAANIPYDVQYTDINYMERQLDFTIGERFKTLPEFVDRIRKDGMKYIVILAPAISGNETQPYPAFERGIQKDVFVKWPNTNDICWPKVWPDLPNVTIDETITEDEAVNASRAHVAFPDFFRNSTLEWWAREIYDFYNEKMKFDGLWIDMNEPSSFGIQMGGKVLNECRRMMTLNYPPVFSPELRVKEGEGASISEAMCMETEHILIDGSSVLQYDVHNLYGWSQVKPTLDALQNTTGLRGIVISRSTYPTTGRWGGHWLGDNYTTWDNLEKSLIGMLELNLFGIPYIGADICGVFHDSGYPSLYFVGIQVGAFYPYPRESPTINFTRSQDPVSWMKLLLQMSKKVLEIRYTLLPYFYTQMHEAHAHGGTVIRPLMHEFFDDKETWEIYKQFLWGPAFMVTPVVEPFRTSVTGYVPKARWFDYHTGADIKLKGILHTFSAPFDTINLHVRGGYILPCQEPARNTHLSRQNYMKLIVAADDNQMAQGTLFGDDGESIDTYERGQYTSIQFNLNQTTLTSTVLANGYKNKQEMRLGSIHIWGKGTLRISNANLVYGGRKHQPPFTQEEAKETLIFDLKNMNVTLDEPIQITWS
T1 sequence (P23739 1-1013 partner limits assumed): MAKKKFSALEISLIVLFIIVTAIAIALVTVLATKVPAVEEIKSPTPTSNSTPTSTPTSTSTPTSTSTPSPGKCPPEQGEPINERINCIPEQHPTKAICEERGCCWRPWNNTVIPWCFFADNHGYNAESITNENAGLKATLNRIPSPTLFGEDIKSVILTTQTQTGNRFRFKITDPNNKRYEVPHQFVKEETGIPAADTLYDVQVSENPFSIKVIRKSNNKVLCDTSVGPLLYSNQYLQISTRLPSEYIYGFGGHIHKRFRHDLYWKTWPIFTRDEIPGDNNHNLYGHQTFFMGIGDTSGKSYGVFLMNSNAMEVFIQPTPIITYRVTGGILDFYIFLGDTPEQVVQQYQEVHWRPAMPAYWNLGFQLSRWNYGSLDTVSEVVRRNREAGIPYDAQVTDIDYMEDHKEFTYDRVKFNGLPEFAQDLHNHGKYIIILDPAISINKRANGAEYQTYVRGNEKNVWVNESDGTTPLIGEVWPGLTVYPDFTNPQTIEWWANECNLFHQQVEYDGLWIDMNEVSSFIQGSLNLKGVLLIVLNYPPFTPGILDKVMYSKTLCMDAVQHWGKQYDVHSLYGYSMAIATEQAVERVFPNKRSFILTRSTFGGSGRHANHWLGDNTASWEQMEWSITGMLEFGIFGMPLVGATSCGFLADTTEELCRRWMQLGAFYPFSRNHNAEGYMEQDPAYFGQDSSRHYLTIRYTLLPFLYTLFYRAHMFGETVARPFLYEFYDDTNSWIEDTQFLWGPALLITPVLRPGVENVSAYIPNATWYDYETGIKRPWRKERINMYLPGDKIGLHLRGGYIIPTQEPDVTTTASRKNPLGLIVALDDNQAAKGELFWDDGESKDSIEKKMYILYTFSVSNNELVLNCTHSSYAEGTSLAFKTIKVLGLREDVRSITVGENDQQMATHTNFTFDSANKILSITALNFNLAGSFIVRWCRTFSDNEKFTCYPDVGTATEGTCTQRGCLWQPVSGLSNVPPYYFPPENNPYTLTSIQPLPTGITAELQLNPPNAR

[1] = many individuals; cited from earlier work
FVB and C57BL/6J mice = test: Tissue (glyco)sphingolipid levels in orally treated FVB and C57BL/6J mice (HPLC, TLC)
[2] = tested on: cultured adipocytes and muscle cells; test: Insulin signaling in cultured adipocytes and muscle cells (GLUT4, deoxyglucose uptake); format: cell-based
Description: Initial experiments already confirmed this effect.

surface GM3 = test: Surface GM3 expression by FACS after 3 days exposure of cells; format: cell-based; details: 72 h, cells exposed for 3 days, read-out: IC50 value for surface GM3 reduction
[3] = Tolerability in animal studies; format: in vivo
lactase = target: T2, lactase (Rattus norvegicus, UniProt Q02401); test: In vitro lactase activity, intestinal membrane preparation; format: biochemical; details: rat intestinal membranes; read-out: IC50 value for inhibition of Lactase
T2 construct: Membrane homogenates were prepared by extensive washing and homogenization; from tissue; host or cells: rat intestinal membrane homogenate
T2 sequence (Q02401 868-1928): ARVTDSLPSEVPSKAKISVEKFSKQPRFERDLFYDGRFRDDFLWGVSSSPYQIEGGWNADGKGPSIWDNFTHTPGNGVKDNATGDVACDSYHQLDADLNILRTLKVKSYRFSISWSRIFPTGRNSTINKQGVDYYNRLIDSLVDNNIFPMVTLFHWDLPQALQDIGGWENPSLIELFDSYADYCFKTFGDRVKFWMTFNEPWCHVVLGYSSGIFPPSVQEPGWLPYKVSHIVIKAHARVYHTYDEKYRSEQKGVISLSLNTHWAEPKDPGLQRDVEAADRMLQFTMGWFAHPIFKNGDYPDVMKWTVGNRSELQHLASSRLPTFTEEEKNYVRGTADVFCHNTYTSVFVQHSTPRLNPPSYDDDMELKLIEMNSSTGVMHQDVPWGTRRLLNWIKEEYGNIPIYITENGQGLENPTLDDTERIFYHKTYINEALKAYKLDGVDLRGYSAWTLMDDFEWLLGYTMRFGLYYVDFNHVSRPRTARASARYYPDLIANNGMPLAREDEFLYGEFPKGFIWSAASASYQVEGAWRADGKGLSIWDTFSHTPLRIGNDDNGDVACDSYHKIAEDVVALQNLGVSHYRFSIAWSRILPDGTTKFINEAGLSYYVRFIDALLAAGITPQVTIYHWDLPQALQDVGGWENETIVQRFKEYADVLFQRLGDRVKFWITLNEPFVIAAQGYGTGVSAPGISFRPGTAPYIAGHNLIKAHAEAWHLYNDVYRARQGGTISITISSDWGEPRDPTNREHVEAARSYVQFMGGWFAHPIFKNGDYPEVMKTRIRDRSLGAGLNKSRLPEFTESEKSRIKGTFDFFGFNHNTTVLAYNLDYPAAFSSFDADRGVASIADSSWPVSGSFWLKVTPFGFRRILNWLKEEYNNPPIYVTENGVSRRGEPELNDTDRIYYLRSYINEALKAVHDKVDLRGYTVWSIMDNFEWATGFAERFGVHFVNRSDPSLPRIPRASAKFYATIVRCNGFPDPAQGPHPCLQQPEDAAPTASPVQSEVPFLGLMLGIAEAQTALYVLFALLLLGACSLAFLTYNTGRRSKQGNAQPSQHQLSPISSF

[4] = Plasma level and tissue penetration after oral dosing; format: in vivo, mice
debranching enzyme = target: T3, debranching enzyme (Homo sapiens, UniProt P35573); test: Debranching enzyme activity, glucose release from limit dextrin, erythrocyte homogenate; format: biochemical; details: read-out: IC50 value for inhibition of Debranching enzyme
T3 construct: As enzyme source erythrocytes are used since they contain no other enzymes that can degrade glycogen or limit dextrin; from tissue; host or cells: erythrocyte homogenate
T3 sequence (P35573 whole entry): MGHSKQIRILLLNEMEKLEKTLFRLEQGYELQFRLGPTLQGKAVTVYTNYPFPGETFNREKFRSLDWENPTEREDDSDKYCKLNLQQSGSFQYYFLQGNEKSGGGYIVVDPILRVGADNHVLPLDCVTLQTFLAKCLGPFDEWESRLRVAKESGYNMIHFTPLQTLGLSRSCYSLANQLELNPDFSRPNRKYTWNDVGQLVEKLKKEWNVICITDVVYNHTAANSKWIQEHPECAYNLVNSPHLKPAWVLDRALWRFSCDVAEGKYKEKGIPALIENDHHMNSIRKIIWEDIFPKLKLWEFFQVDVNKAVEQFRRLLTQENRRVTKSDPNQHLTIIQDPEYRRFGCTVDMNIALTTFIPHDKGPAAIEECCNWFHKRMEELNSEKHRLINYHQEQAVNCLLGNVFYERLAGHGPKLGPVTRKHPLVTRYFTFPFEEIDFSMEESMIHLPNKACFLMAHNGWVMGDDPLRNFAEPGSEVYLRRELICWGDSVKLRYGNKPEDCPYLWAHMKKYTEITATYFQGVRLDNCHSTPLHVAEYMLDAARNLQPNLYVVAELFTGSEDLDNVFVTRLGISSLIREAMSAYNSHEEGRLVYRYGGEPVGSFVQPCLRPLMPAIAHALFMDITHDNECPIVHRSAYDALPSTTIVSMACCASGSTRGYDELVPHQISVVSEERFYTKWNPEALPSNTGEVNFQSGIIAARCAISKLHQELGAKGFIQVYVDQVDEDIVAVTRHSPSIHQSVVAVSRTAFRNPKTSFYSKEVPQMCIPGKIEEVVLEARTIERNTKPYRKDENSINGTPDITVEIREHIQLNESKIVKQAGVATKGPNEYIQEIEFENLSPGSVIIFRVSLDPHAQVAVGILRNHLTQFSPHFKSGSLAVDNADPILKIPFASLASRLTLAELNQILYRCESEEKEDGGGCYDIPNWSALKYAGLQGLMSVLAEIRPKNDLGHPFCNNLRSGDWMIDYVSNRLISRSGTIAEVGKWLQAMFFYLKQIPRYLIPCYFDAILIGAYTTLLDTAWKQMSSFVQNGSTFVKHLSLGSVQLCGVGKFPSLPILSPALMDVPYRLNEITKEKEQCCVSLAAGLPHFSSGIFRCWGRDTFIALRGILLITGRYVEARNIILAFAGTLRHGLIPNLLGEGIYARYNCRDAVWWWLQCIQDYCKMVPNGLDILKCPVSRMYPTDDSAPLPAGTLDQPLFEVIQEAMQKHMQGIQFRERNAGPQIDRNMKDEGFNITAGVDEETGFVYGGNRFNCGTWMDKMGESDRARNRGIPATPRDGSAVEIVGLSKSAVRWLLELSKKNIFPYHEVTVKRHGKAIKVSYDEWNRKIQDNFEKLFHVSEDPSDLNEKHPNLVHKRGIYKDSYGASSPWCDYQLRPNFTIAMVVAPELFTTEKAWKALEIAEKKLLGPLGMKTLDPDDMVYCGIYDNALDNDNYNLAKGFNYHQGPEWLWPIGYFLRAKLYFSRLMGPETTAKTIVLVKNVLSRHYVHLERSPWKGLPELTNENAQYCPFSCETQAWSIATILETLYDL

[5] = tested on: C57BL/6J mice (ob-/-, db-/-, +/+); test: Oral treatment of obese, diabetes and normal C57BL/6J mice: glucose and water intake; format: in vivo
Experimental: Plasma glucose, water intake and food intake were monitored.
Mice (obese-lep^ob (C57B1/6)laHsd-Lep^ob); diabetes-lepr^db (C57B1/6KsOlaHsd—Lepr^db); wildtype (C57B1/6J OlaHsd) and wild type FVB (FVB/NHanHsd) were obtained from Harlan Nederland. Animals were fed with AM-II diet with or without N-(5-adamantane-1-yl-methoxy-pentyl)deoxynojirimycin (Hope Farms Netherlands). Mice were kept in groups of five in each cage. Water consumption and food intake were determined three times weekly per cage. Body weight of individual animals was determined three times weekly. Glucose in plasma was determined with the GOD-PAP method (Merck), and glucose in urine was determined using […] test strips (Roche).

[6] = Pharmacological features (bioavailability, metabolism); details: in vivo
[7] = target: glycan trimming α-glucosidase; details: cited from earlier work
[8] = intestinal sucrase, read-out: IC50 value for sucrase
[9] = rat intestinal membranes, read-out: IC50 value for inhibition of Sucrase
[10] = obese and diabetes mice, administration by food, dose-dependent

OCCN1C[C@H](O)[C@@H](O)[C@H](O)[C@H]1CO [N-hydroxyethyl-deoxynojirimycin]
IC50 (sucrase; [8]): < 5000 µM
IC50 (sucrase; [9]): 100 µM
tolerability (intestinal complaints) [1]: not very well tolerated

OC[C@@H]1[C@@H](O)[C@H](O)[C@@H](O)CN1CCCCCOCC12CC3CC(CC(C3)C1)C2 [AMP-DNM, N-(5-adamantane-1-yl-methoxy-pentyl)deoxynojirimycin]
IC50 (sucrase; [8]): 4500 µM
brain gangliosides or sulfatide (FVB and C57BL/6J mice; TLC, brain): No changes
liver GM3 (FVB and C57BL/6J mice; TLC, liver, 2 wks 100 mg/kg): marked reduction
muscle GM3 (FVB and C57BL/6J mice; TLC, muscle): reduction
brain galactosylceramide concentration (FVB and C57BL/6J mice; brain, 100 mg/kg oral): No changes
liver glucosylceramide reduced by (FVB and C57BL/6J mice; liver, 100 mg/kg oral): 80%
ceramide concentration (FVB and C57BL/6J mice; liver, muscle and brain, 100 mg/kg oral): No changes
muscle glucosylceramide reduced by (FVB and C57BL/6J mice; muscle, 100 mg/kg oral): 50%
surface expression of GLUT4 ([2]; adipocytes): increased
deoxyglucose uptake ([2]; cultured adipocytes and muscle cells): increased
IC50 (surface GM3): ~250 nM
overt pathology in animal studies [3]: does not result in any overt pathology
tolerability in animal studies [3]: well tolerated
IC50 (lactase): 18 mM
concentration at 4 weeks ([4]; mouse, plasma, oral, 4 weeks 100 mg/kg orally, enzymatic method, read-out: plasma levels): ~1000 nM
brain penetration ([4]; oral administration): poorly penetrates in the brain
IC50 (debranching enzyme): > 500 µM
urinary glucose ([5]; after 2 weeks treatment, particularly ob-/ob- mice at highest dose): major reduction
blood glucose ([5]; normal mice): small reduction
blood glucose [5, 10]: reductions
water intake [5, 10]: reductions
metabolism [6]: lack of metabolism
oral bioavailability ([6]; po): good oral bioavailability

C[C@H]1O[C@H](O[C@H]2[C@H](O)[C@@H](O)[C@@H](O[C@H]3[C@H](O)[C@@H](O)C(O)O[C@@H]3CO)O[C@@H]2CO)[C@H](O)[C@@H](O)[C@@H]1N[C@H]1C=C(CO)[C@@H](O)[C@H](O)[C@H]1O (some centres unmarked) [Acarbose]
tolerability (intestinal complaints) [1]: not very well tolerated

CCCCN1C[C@H](O)[C@@H](O)[C@H](O)[C@H]1CO [N-butyl-deoxynojirimycin]
IC50 (sucrase; [9]): 500 µM
Ki glycan trimming α-glucosidase in vitro [7]: sub-μM
